# In US20090142269A1, “ISOTOYPICALLY-LABELED BENZOTHIAZOLE COMPOUNDS AS IMAGING AGENTS FOR AMYLOIDOGENIC PROTEINS” (UNIVERSITY OF OITTSBURGH-OF THE COMMONWEALTH SYSTEM OF …, priority 2005, published 2009):
# pKi: −log10 of the molar value.
# Biological target: T1, synthetic Aβ(1-40) (Homo sapiens, UniProt P05067)
# T1 construct: analyzed, using synthetic Aβ(1-40)
# Assay: Competition of [3H]BTA-1 binding from synthetic Aβ(1-40)
# Conditions: in vitro, aggregated amyloid
# Protocol: The characteristics of benzothiazole derivative binding were analyzed, using synthetic Aβ(1-40) and 2-(4′-[^3H]methylamino-phenyl)-benzothiazole ([^3H]BTA-1) in phosphate-buffered saline (pH 7.4), as previously described. Klunk et al., Life Sci. 69:1471 (2001); Mathis et al., Bioorg. Med. Chem. Lett. 12: 295 (2002).
# The characteristics of benzothiazole derivative binding were analyzed using synthetic Aβ(1-40) and 2-(4′ [^3H]methylamino-phenyl)-benzothiazole ([^3H]BTA-1) in phosphate-buffered saline (pH 7.4), as previously described. Klunk et al., Life Sci. 69:1471 (2001); Mathis et al., Bioorg. Med. Chem. Lett., 12:295 (2002). The table below lists the inhibition constants (Ki) of exemplary benzothiazole compounds shown for competition of [^3H]BTA-1 binding from synthetic Aβ(1-40).
# T1 sequence (P05067 672-711): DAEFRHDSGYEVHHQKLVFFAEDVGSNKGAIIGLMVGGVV
row,SMILES,affinity of the ligand in vitro for aggregated amyloid
1,COc1ccc2nc(-c3ccc([18F])cc3)sc2c1 [[F-18]-6-Methoxy-2-(4′-fluorophenyl)benzothiazole],relatively high affinity

# Same assay, conditions: inhibition constant for competition of [3H]BTA-1 binding from synthetic Aβ(1-40), phosphate-buffered saline pH 7.4
row,SMILES,pKi
1,COc1ccc2sc(-c3ccc(F)cc3)nc2c1,7.87
2,CNc1ccc2nc(-c3ccc(F)cc3)sc2c1,8.13
3,COc1ccc2nc(-c3ccc(F)cc3O)sc2c1,8.96
4,COc1ccc2nc(-c3ccc(F)cc3)sc2c1,8.22
5,COc1ccc2sc(-c3ccc(F)cc3)nc2c1OC,7.09
6,COc1cc(OC)c2nc(-c3ccc(F)cc3)sc2c1,6.94
7,COc1ccc(OC)c2sc(-c3ccc(F)cc3)nc12,6.48
8,COc1cccc2sc(-c3ccc(F)cc3)nc12,6.22
9,Oc1cccc2sc(-c3ccc(F)cc3)nc12,6.42
10,COc1cc2nc(-c3ccc(F)cc3)sc2cc1OC,7.05
11,COc1cc(OC)c2sc(-c3ccc(F)cc3)nc2c1,7.47
12,Oc1ccc2sc(-c3ccc(F)cc3)nc2c1,6.30
13,COc1cc(O)c2nc(-c3ccc(F)cc3)sc2c1,7.29
14,COc1ccc2nc(-c3ccc(F)cc3OC)sc2c1,7.78
15,COc1ccc2nc(-c3ccc(F)c(F)c3)sc2c1,6.81
16,N#Cc1ccc2nc(-c3ccc(F)cc3)sc2c1,6.88
17,FCCOc1ccc2nc(-c3ccc(F)cc3)sc2c1,8.01
18,FCCCOc1ccc2nc(-c3ccc(F)cc3)sc2c1,7.57
19,CS(=O)(=O)c1ccc2nc(-c3ccc(F)cc3)sc2c1,5.90
20,Nc1ccc2nc(-c3ccc(F)cc3)sc2c1,7.07
21,Nc1cc(F)ccc1-c1nc2ccc(O)cc2s1,7.83
22,Oc1ccc2nc(-c3ccc(F)cc3O)sc2c1,7.50
23,Oc1ccc2nc(-c3ccc(F)c(F)c3)sc2c1,7.72
24,Oc1ccc2nc(-c3ccc(F)c(Cl)c3)sc2c1,6.89
25,Oc1ccc2nc(-c3ccc(CF)cc3)sc2c1,7.33
26,OCc1ccc(-c2nc3ccc(O)cc3s2)cc1,6.51
27,Oc1ccc2nc(-c3ccc(F)cc3)sc2c1,6.74

row,SMILES,pKi
1,COc1cccc2nc(-c3ccc(F)cc3)sc12,7.83
2,Oc1cccc2nc(-c3ccc(F)cc3)sc12,6.73
3,Nc1cc(F)ccc1-c1nc2ccccc2s1,8.31
4,Nc1ccccc1-c1nc2ccccc2s1,7.71
5,O=[N+]([O-])c1cc(F)ccc1-c1nc2ccccc2s1,6.09
6,Brc1ccc(-c2nc3ccccc3s2)cc1,8.06
7,Cc1ccc(-c2nc3ccccc3s2)cc1,7.72
8,Fc1ccc(-c2nc3ccccc3s2)cc1,7.36
9,Ic1ccc(-c2nc3ccccc3s2)cc1,8.59
10,Nc1c(F)c(F)c(-c2nc3ccc(O)cc3s2)c(F)c1F,6.00
11,COc1ccc2nc(-c3c(F)c(F)c(N)c(F)c3F)sc2c1,6.92
12,CNc1c(F)c(F)c(-c2nc3ccc(O)cc3s2)c(F)c1F,6.56
13,CNc1c(F)c(F)c(-c2nc3ccc(OC)cc3s2)c(F)c1F,7.59
14,Nc1ccc(F)cc1-c1nc2ccc(O)cc2s1,7.66
15,Nc1cccc(F)c1-c1nc2ccc(O)cc2s1,7.85
16,Nc1c(F)cccc1-c1nc2ccc(O)cc2s1,8.51
17,COc1ccc(-c2nc3ccc(N(C)C)cc3s2)cc1,8.89
18,CNc1ccc2nc(-c3ccc(OC)cc3)sc2c1,8.74
19,CN(C)c1ccc2nc(-c3ccc(O)cc3)sc2c1,7.97
20,CNc1ccc(-c2nc3ccc(OCCOCCOCCF)cc3s2)cc1,8.31
21,CNc1c(F)cccc1-c1nc2ccc(O)cc2s1,7.34
22,CNc1cc(F)ccc1-c1nc2ccc(O)cc2s1,7.31
23,CNc1ccc(-c2nc3ccc(O)cc3s2)c(N)c1,8.27
24,CNc1cc(N)ccc1-c1nc2ccc(O)cc2s1,7.02
25,CNc1ccc(-c2nc3ccccc3s2)cc1CCCF,7.11
26,CNc1ccc2nc(-c3ccc(O)cc3F)sc2c1,8.92
27,CNc1ccc2nc(-c3ccc(O)c(F)c3)sc2c1,8.28

# System: not listed separately
# Assay: Baboon brain entry study (PET time-activity curves)
# Assay type: in vivo
# Conditions: 40 kg baboon, 8 mCi intravenously, PET brain imaging over 2 h post injection
# Protocol: A 40 kg baboon was anesthesized, immobilized, and placed on a ventilator. The baboon was positioned in a PET scanner to image the brain, and a transmission scan was performed to correct for attenuation. The baboon was injected intravenously with a solution containing 8 mCi of [F-18]-6-Methoxy-2-(4′-fluorophenyl)benzothiazole, and the brain was imaged in a series of increasing data collection time bins over 2 h post injection. Following data acquisition, the images were reconstructed and regions of interest were drawn. Decay and […] corrected time-activity curves (TAC) were generated for each of the regions to determine the quantitative time course of radioactivity in each brain region.
SMILES,brain penetration of the radiotracer,clearance of radioactivity from normal baboon brain
COc1ccc2nc(-c3ccc([18F])cc3)sc2c1 [[F-18]-6-Methoxy-2-(4′-fluorophenyl)benzothiazole],excellent brain penetration,rapid clearance
